{
  "source": "patent US6495571B1",
  "about": "“Pyridine compounds, use and preparation thereof” (Southern Research Institute, priority 1999, dated 2002)",
  "key": {"[1]": {"tested_on": "human MX-1 mammary tumor (ic, 10^6 cells)", "assay": "In vivo antitumor activity, i.c.-implanted MX-1 xenograft", "conditions": "for Median % ILS (dying mice only) / Tumor-Free-Surv/Total: Days 1-5; for activity against i.c.-implanted tumor (in words): in comparison to PEN and DM-PEN; for Median % ILS (based on dying mice only) / Survivors: optimal doses (LD10 or less), schedule QD1-5, administered LP."}, "[2]": {"tested_on": "human MX-1 mammary tumor (sc, 30-40 mg fragments)", "assay": "In vivo antitumor activity, s.c.-implanted MX-1 xenograft", "set-up": "species or system Athymic mice (Ncr-nu)", "conditions": "for antitumor activity (in words): MX-1 implanted s.c. or i.c.; for IP dosage marked (LD50): Days 12-16, sc MX-1 bearing mice"}, "[3]": {"conditions": "oral (gavage) 135 mg/kg/dose, Days 13-17"}, "[4]": {"conditions": "oral (gavage) 135 mg/kg/dose, Days 12-16"}},
  "note": "Marks after values point to notes of the source that are not given here.",
  "data": [
    {"compound": "COc1nc(C(Cl)(Cl)Cl)c(Cl)c(OC(=O)COC(C)=O)c1Cl", "note": "[DM-AA-PEN]", "values": [
      {"measurement": "Median % ILS (dying mice only)", "setting": "[1]; IP 135 mg/kg/dose", "value": "+67%"},
      {"measurement": "Tumor-Free-Surv/Total", "setting": "[1]; IP 135 mg/kg/dose", "value": "0/5"},
      {"measurement": "Median % ILS (dying mice only)", "setting": "[1]; oral (gavage) 135 mg/kg/dose", "value": "+115%"},
      {"measurement": "Tumor-Free-Surv/Total", "setting": "[1]; oral (gavage) 135 mg/kg/dose", "value": "2/5"}
    ]},
    {"compound": "C=CC(=O)Oc1c(Cl)c(OC)nc(C(Cl)(Cl)Cl)c1Cl", "note": "[DM-AC-PEN]", "values": [
      {"measurement": "T-C", "setting": "[2]; IP 60 mg/kg/dose, Days 12-16", "value": 30.0, "unit": "days"},
      {"measurement": "Tumor-Free-Surv/Total", "setting": "[2]; IP 60 mg/kg/dose, Days 12-16", "value": "1/5"},
      {"measurement": "Median % ILS (dying mice only)", "setting": "[1]; IP 60 mg/kg/dose", "value": "+55%"},
      {"measurement": "Tumor-Free-Surv/Total", "setting": "[1]; IP 60 mg/kg/dose", "value": "0/5"}
    ]},
    {"compound": "COc1nc(C(Cl)(Cl)Cl)c(Cl)c(OC(=O)c2ccccc2)c1Cl", "note": "[DM-B-PEN]", "values": [
      {"measurement": "T-C", "setting": "[2]; IP 135 mg/kg/dose, Days 11-15", "value": ">42.7", "unit": "days"},
      {"measurement": "Tumor-Free-Surv/Total", "setting": "[2]; IP 135 mg/kg/dose, Days 11-15", "value": "5/5"},
      {"measurement": "antitumor activity (in words)", "setting": "[2]; i.p. administration", "value": "high activity"},
      {"measurement": "antitumor activity (in words)", "setting": "[2]; oral drug treatment", "value": "low antitumor activity"},
      {"measurement": "oral absorption (in words)", "setting": "[2]; inferred from MX-1 results (s.c. or i.c.), oral treatment", "value": "oral absorption was poor"},
      {"measurement": "T-C", "setting": "[2]; [3]", "value": -1.4, "unit": "days"},
      {"measurement": "Tumor-Free-Surv/Total", "setting": "[2]; [3]", "value": "0/5"},
      {"measurement": "Median % ILS (dying mice only)", "setting": "[1]; IP 335 mg/kg/dose", "value": "+84%"},
      {"measurement": "Tumor-Free-Surv/Total", "setting": "[1]; IP 335 mg/kg/dose", "value": "0/5"},
      {"measurement": "Median % ILS (dying mice only)", "setting": "[1]; oral (gavage) 135 mg/kg/dose", "value": "+12%"},
      {"measurement": "Tumor-Free-Surv/Total", "setting": "[1]; oral (gavage) 135 mg/kg/dose", "value": "0/5"}
    ]},
    {"compound": "COc1nc(C(Cl)(Cl)Cl)c(Cl)c(OC(=O)CBr)c1Cl", "note": "[DM-BA-PEN]", "values": [
      {"measurement": "T-C", "setting": "[2]; IP 135 mg/kg/dose, Days 12-16", "value": ">41.0", "unit": "days"},
      {"measurement": "Tumor-Free-Surv/Total", "setting": "[2]; IP 135 mg/kg/dose, Days 12-16", "value": "2/5"}
    ]},
    {"compound": "COc1nc(C(Cl)(Cl)Cl)c(Cl)c(OC(=O)CCl)c1Cl", "note": "[DM-CA-PEN]", "values": [
      {"measurement": "T-C", "setting": "[2]; IP 60 mg/kg/dose, Days 12-16", "value": ">41.0", "unit": "days"},
      {"measurement": "Tumor-Free-Surv/Total", "setting": "[2]; IP 60 mg/kg/dose, Days 12-16", "value": "3/5"},
      {"measurement": "T-C", "setting": "[2]; [4]", "value": ">41.0", "unit": "days"},
      {"measurement": "Tumor-Free-Surv/Total", "setting": "[2]; [4]", "value": "5/5"},
      {"measurement": "Median % ILS (dying mice only)", "setting": "[1]; oral (gavage) 135 mg/kg/dose", "value": "+84%"},
      {"measurement": "Tumor-Free-Surv/Total", "setting": "[1]; oral (gavage) 135 mg/kg/dose", "value": "2/5"}
    ]},
    {"compound": "COc1nc(C(Cl)(Cl)Cl)c(Cl)c(OC(=O)c2ccc(CCl)cc2)c1Cl", "note": "[DM-CMB-PEN]", "values": [
      {"measurement": "Median % ILS (dying mice only)", "setting": "[1]; IP 90 mg/kg/dose", "value": "+73%"},
      {"measurement": "Tumor-Free-Surv/Total", "setting": "[1]; IP 90 mg/kg/dose", "value": "0/5"}
    ]},
    {"compound": "COC(=O)CCC(=O)Oc1c(Cl)c(OC)nc(C(Cl)(Cl)Cl)c1Cl", "note": "[DM-CMP-PEN]", "values": [
      {"measurement": "T-C", "setting": "[2]; IP 135 mg/kg/dose, Days 11-15", "value": ">42.7", "unit": "days"},
      {"measurement": "Tumor-Free-Surv/Total", "setting": "[2]; IP 135 mg/kg/dose, Days 11-15", "value": "3/5"},
      {"measurement": "T-C", "setting": "[2]; [3]", "value": ">38.5", "unit": "days"},
      {"measurement": "Tumor-Free-Surv/Total", "setting": "[2]; [3]", "value": "2/5"},
      {"measurement": "Median % ILS (dying mice only)", "setting": "[1]; IP 90 mg/kg/dose", "value": "+87%"},
      {"measurement": "Tumor-Free-Surv/Total", "setting": "[1]; IP 90 mg/kg/dose", "value": "1/5"},
      {"measurement": "Median % ILS (dying mice only)", "setting": "[1]; oral (gavage) 90 mg/kg/dose", "value": "+76%"},
      {"measurement": "Tumor-Free-Surv/Total", "setting": "[1]; oral (gavage) 90 mg/kg/dose", "value": "1/5"}
    ]},
    {"compound": "COc1nc(C(Cl)(Cl)Cl)c(Cl)c(OC(=O)C(Cl)Cl)c1Cl", "note": "[DM-DCA-PEN]", "values": [
      {"measurement": "T-C", "setting": "[2]; IP 135 mg/kg/dose, Days 12-16", "value": ">38.6", "unit": "days"},
      {"measurement": "Tumor-Free-Surv/Total", "setting": "[2]; IP 135 mg/kg/dose, Days 12-16", "value": "2/5"}
    ]},
    {"compound": "COc1nc(C(Cl)(Cl)Cl)c(Cl)c(OC(=O)c2ccco2)c1Cl", "note": "[DM-F-PEN]", "values": [
      {"measurement": "T-C", "setting": "[2]; IP 90 mg/kg/dose, Days 12-16", "value": ">41.2", "unit": "days"},
      {"measurement": "Tumor-Free-Surv/Total", "setting": "[2]; IP 90 mg/kg/dose, Days 12-16", "value": "5/5"},
      {"measurement": "Median % ILS (dying mice only)", "setting": "[1]; IP 135 mg/kg/dose", "value": "+108%"},
      {"measurement": "Tumor-Free-Surv/Total", "setting": "[1]; IP 135 mg/kg/dose", "value": "2/5"},
      {"measurement": "activity against i.c.-implanted tumor (in words)", "setting": "[1]", "value": "significant activity"},
      {"measurement": "Median % ILS (based on dying mice only)", "setting": "[1]", "value": "108^c %"},
      {"measurement": "Survivors", "setting": "[1]", "value": "2/5"}
    ]},
    {"compound": "COc1nc(C(Cl)(Cl)Cl)c(Cl)c(OC(=O)CI)c1Cl", "note": "[DM-IA-PEN]", "values": [
      {"measurement": "T-C", "setting": "[2]; IP 60 mg/kg/dose, Days 12-16", "value": 20.3, "unit": "days"},
      {"measurement": "Tumor-Free-Surv/Total", "setting": "[2]; IP 60 mg/kg/dose, Days 12-16", "value": "1/5"},
      {"measurement": "IP dosage marked (LD50)", "setting": "[2]", "value": "60 (LD50) mg/kg/dose"}
    ]},
    {"compound": "COc1nc(C(Cl)(Cl)Cl)c(Cl)c(OC(=O)c2ccncc2)c1Cl", "note": "[DM-IN-PEN]", "values": [
      {"measurement": "T-C", "setting": "[2]; IP 90 mg/kg/dose, Days 12-16", "value": ">38.6", "unit": "days"},
      {"measurement": "Tumor-Free-Surv/Total", "setting": "[2]; IP 90 mg/kg/dose, Days 12-16", "value": "3/5"},
      {"measurement": "IP dosage marked (LD50)", "setting": "[2]", "value": "90 (LD50) mg/kg/dose"}
    ]},
    {"compound": "COCC(=O)Oc1c(Cl)c(OC)nc(C(Cl)(Cl)Cl)c1Cl", "note": "[DM-MA-PEN]", "values": [
      {"measurement": "T-C", "setting": "[2]; [4]", "value": ">41.0", "unit": "days"},
      {"measurement": "Tumor-Free-Surv/Total", "setting": "[2]; [4]", "value": "5/5"},
      {"measurement": "Median % ILS (dying mice only)", "setting": "[1]; IP 90 mg/kg/dose", "value": "+125%"},
      {"measurement": "Tumor-Free-Surv/Total", "setting": "[1]; IP 90 mg/kg/dose", "value": "1/5"},
      {"measurement": "activity against i.c.-implanted tumor (in words)", "setting": "[1]", "value": "significant activity"},
      {"measurement": "Median % ILS (based on dying mice only)", "setting": "[1]", "value": "126^a %"},
      {"measurement": "Survivors", "setting": "[1]", "value": "1/5"},
      {"measurement": "Median % ILS (dying mice only)", "setting": "[1]; oral (gavage) 90 mg/kg/dose", "value": "+110%"},
      {"measurement": "Tumor-Free-Surv/Total", "setting": "[1]; oral (gavage) 90 mg/kg/dose", "value": "1/5"}
    ]},
    {"compound": "COc1nc(C(Cl)(Cl)Cl)c(Cl)c(OC(=O)c2ccc([N+](=O)[O-])cc2)c1Cl", "note": "[DM-NB-PEN]", "values": [
      {"measurement": "T-C", "setting": "[2]; IP 135 mg/kg/dose, Days 12-16", "value": ">38.6", "unit": "days"},
      {"measurement": "Tumor-Free-Surv/Total", "setting": "[2]; IP 135 mg/kg/dose, Days 12-16", "value": "5/5"}
    ]},
    {"compound": "CCCCCCCC(=O)Oc1c(Cl)c(OC)nc(C(Cl)(Cl)Cl)c1Cl", "note": "[DM-O-PEN]", "values": [
      {"measurement": "Median % ILS (dying mice only)", "setting": "[1]; IP 90 mg/kg/dose", "value": "+121%"},
      {"measurement": "Tumor-Free-Surv/Total", "setting": "[1]; IP 90 mg/kg/dose", "value": "0/5"},
      {"measurement": "activity against i.c.-implanted tumor (in words)", "setting": "[1]", "value": "significant activity"},
      {"measurement": "Median % ILS (based on dying mice only)", "setting": "[1]", "value": "121^b %"},
      {"measurement": "Survivors", "setting": "[1]", "value": "0/5"}
    ]},
    {"compound": "COc1nc(C(Cl)(Cl)Cl)c(Cl)c(OC(=O)c2c(Cl)cc(Cl)cc2Cl)c1Cl", "note": "[DM-TCB-PEN]", "values": [
      {"measurement": "Median % ILS (dying mice only)", "setting": "[1]; IP 135 mg/kg/dose", "value": "+92%"},
      {"measurement": "Tumor-Free-Surv/Total", "setting": "[1]; IP 135 mg/kg/dose", "value": "1/5"}
    ]}
  ]
}
